Measurements taken from ChEMBL document CHEMBL1154273, “Synthesis and antimalarial activity of new atovaquone derivatives” (Eur J Med Chem, 2009).

test system: Plasmodium falciparum; assay: Antimalarial activity against Plasmodium falciparum Nigerian assessed as [3H]hypoxanthine uptake after 48 hrs by liquid scintillation counting; type: functional, organism-based

Compared with `CC(=O)OC1=C([C@H]2CC[C@H](c3ccc(Cl)cc3)CC2)C(=O)c2ccccc2C1=O`, `CCOC1=C([C@H]2CC[C@H](c3ccc(Cl)cc3)CC2)C(=O)c2ccccc2C1=O` is 3.7-fold higher in IC50: 1.5 nM for the first, 5.55 nM for the second.

Going from `CCCCCCCCCCCCCCCCCC(=O)OC1=C([C@H]2CC[C@H](c3ccc(Cl)cc3)CC2)C(=O)c2ccccc2C1=O` to `CCCCCCCCCCCCCCCCCCOC1=C([C@H]2CC[C@H](c3ccc(Cl)cc3)CC2)C(=O)c2ccccc2C1=O`, the IC50 falls from 52 nM to 32 nM (1.6-fold). The second is the more potent here.

`O=C(/C=C/c1ccccc1)OC1=C([C@H]2CC[C@H](c3ccc(Cl)cc3)CC2)C(=O)c2ccccc2C1=O` and `O=C(OC1=C([C@H]2CC[C@H](c3ccc(Cl)cc3)CC2)C(=O)c2ccccc2C1=O)c1ccccc1` are within 1.5-fold of each other in IC50: 1.45 nM for the first, 1.25 nM for the second.

`CCCCCC(=O)OC1=C([C@H]2CC[C@H](c3ccc(Cl)cc3)CC2)C(=O)c2ccccc2C1=O` and `CCCCCCCC(=O)OC1=C([C@H]2CC[C@H](c3ccc(Cl)cc3)CC2)C(=O)c2ccccc2C1=O` are within 1.5-fold of each other in IC50: 1.25 nM for the first, 1.5 nM for the second.

First: CCCCCCCCC(=O)OC1=C([C@H]2CC[C@H](c3ccc(Cl)cc3)CC2)C(=O)c2ccccc2C1=O
Second: CCCCCCCCCC(=O)OC1=C([C@H]2CC[C@H](c3ccc(Cl)cc3)CC2)C(=O)c2ccccc2C1=O
The IC50 of the first is 1.6-fold higher: 3.1 nM for the first, 1.9 nM for the second. The second is the more potent here.

First: CCCCCCCCCC(=O)OC1=C([C@H]2CC[C@H](c3ccc(Cl)cc3)CC2)C(=O)C(=O)c2ccccc21
Second: CCCCCCCCCOC1=C([C@H]2CC[C@H](c3ccc(Cl)cc3)CC2)C(=O)c2ccccc2C1=O
The IC50 of the first is higher: over 100 nM for the first, 14 nM for the second.

Compared with `O=C1C(OCc2ccccc2)=C([C@H]2CC[C@H](c3ccc(Cl)cc3)CC2)C(=O)c2ccccc21`, `O=C(Cc1ccc(Cl)cc1)OC1=C([C@H]2CC[C@H](c3ccc(Cl)cc3)CC2)C(=O)c2ccccc2C1=O` is 4.6-fold lower in IC50: 7.65 nM for the first, 1.65 nM for the second.

`CCCCCCOC1=C([C@H]2CC[C@H](c3ccc(Cl)cc3)CC2)C(=O)c2ccccc2C1=O` and `CCCCCCCCCCOC1=C([C@H]2CC[C@H](c3ccc(Cl)cc3)CC2)C(=O)c2ccccc2C1=O` are within 1.5-fold of each other in IC50: 13.5 nM for the first, 11 nM for the second.

`O=C(Cc1ccc(F)cc1)OC1=C([C@H]2CC[C@H](c3ccc(Cl)cc3)CC2)C(=O)c2ccccc2C1=O` and `O=C(OC1=C([C@H]2CC[C@H](c3ccc(Cl)cc3)CC2)C(=O)c2ccccc2C1=O)c1ccc(F)cc1` are within 1.5-fold of each other in IC50: 1.75 nM for the first, 1.6 nM for the second.

Compared with `O=C1C(O)=C([C@H]2CC[C@H](c3ccc(Cl)cc3)CC2)C(=O)c2ccccc21` [ATOVAQUONE], `C=C[C@H]1CN2CC[C@H]1C[C@H]2[C@H](O)c1ccnc2ccc(OC)cc12` [QUININE] is 240-fold higher in IC50: 0.75 nM for the first, 180 nM for the second.
